Drawing on the NIST ThermoML archive (doi:10.1021/je0497000), this text covers mass density, speed of sound and Normal boiling temperature for ten compounds.

For data set [1] the following is noted: Liquid; for mass density / speed of sound: 298.15 K, 101.3 kPa.
The nature of data set [2]: xn = mol fraction of the nth substance listed. The note with it: 298.15 K, 101.3 kPa, Liquid.

Numbers after ± are expanded uncertainties.

As a reminder, the mass density is the mass of a sample divided by its volume. For orientation: speed of sound means how fast a sound wave travels through the sample. On to `CC(C)=O` [acetone], for which, in data set [1], the mass density stood at 784.37 ± 0.31 kg/m3, the speed of sound was 1162 ± 2 m/s and the Normal boiling temperature was 56.12 ± 0.13 °C.
`CC(C)=O` [acetone] + COC(=O)OC: in data set [2] (x1 = 1), the mass density was determined as 784.37 ± 0.31 kg/m3 and the speed of sound worked out at 1162 ± 2 m/s.
As to `CCC(C)=O` [butanone], in data set [1], the mass density is 799.7 ± 0.35 kg/m3, the speed of sound is given as 1192 ± 2 m/s and the Normal boiling temperature was 79.63 ± 0.13 °C.
As to `CCC(C)=O` [butanone] + COC(=O)OC, the mass density came to 1049.31 ± 0.54 kg/m3 in data set [2] (x1 = 0.0499); 1035.29 ± 0.51 kg/m3 in data set [2] (x1 = 0.0999); 1007.79 ± 0.47 kg/m3 in data set [2] (x1 = 0.1994); 980.5 ± 0.44 kg/m3 in data set [2] (x1 = 0.2996); 953.88 ± 0.42 kg/m3 in data set [2] (x1 = 0.3986); 926.3 ± 0.41 kg/m3 in data set [2] (x1 = 0.5027). Besides, the mass density in data set [2] (x1 = 0.6014) is reported as 900.51 ± 0.38 kg/m3; in data set [2] (x1 = 0.7102), 872.49 ± 0.36 kg/m3; in data set [2] (x1 = 0.8038), 848.69 ± 0.35 kg/m3; in data set [2] (x1 = 0.9043), 823.48 ± 0.35 kg/m3; in data set [2] (x1 = 0.9514), 811.75 ± 0.35 kg/m3; in data set [2] (x1 = 1), 799.7 ± 0.35 kg/m3. The speed of sound in data set [2] (x1 = 0.0499) came out at 1199 ± 2 m/s; in data set [2] (x1 = 0.0999), 1198 ± 2 m/s; in data set [2] (x1 = 0.1994) it was 1196 ± 2 m/s; in data set [2] (x1 = 0.2996) it was 1194 ± 2 m/s; in data set [2] (x1 = 0.3986) it was 1192 ± 2 m/s; in data set [2] (x1 = 0.5027), 1191 ± 2 m/s. Moreover, the speed of sound turned out to be 1190 ± 2 m/s in data set [2] (x1 = 0.6014); 1190 ± 2 m/s in data set [2] (x1 = 0.7102); 1191 ± 2 m/s in data set [2] (x1 = 0.8038); 1191 ± 2 m/s in data set [2] (x1 = 0.9043); 1191 ± 2 m/s in data set [2] (x1 = 0.9514); 1192 ± 2 m/s in data set [2] (x1 = 1).
As for `COC(=O)OC` [dimethyl carbonate], in data set [1], the mass density is given as 1063.33 ± 0.56 kg/m3, the speed of sound was determined as 1198 ± 2 m/s and the Normal boiling temperature came out at 90.31 ± 0.13 °C.
As to `COC(=O)OC` [dimethyl carbonate] + CC(C)=O, the mass density is 1063.33 ± 0.56 kg/m3 in data set [2] (x2 = 0); 1052.64 ± 0.53 kg/m3 in data set [2] (x2 = 0.0447); 1041.54 ± 0.51 kg/m3 in data set [2] (x2 = 0.0906); 1017.22 ± 0.45 kg/m3 in data set [2] (x2 = 0.1886); 991.68 ± 0.4 kg/m3 in data set [2] (x2 = 0.2886); 963.86 ± 0.37 kg/m3 in data set [2] (x2 = 0.3941). Further, the mass density in data set [2] (x2 = 0.4933) was 936.83 ± 0.35 kg/m3; in data set [2] (x2 = 0.5988), 907.17 ± 0.32 kg/m3; in data set [2] (x2 = 0.7021), 877.06 ± 0.3 kg/m3; in data set [2] (x2 = 0.7974) it was 848.41 ± 0.29 kg/m3; in data set [2] (x2 = 0.9053), 814.88 ± 0.29 kg/m3; in data set [2] (x2 = 0.9534), 799.51 ± 0.3 kg/m3. Besides, the speed of sound was found to be 1198 ± 2 m/s in data set [2] (x2 = 0); 1196 ± 2 m/s in data set [2] (x2 = 0.0447); 1195 ± 2 m/s in data set [2] (x2 = 0.0906); 1192 ± 2 m/s in data set [2] (x2 = 0.1886); 1188 ± 2 m/s in data set [2] (x2 = 0.2886); 1184 ± 2 m/s in data set [2] (x2 = 0.3941). In addition, the speed of sound was 1180 ± 2 m/s in data set [2] (x2 = 0.4933); 1176 ± 2 m/s in data set [2] (x2 = 0.5988); 1172 ± 2 m/s in data set [2] (x2 = 0.7021); 1168 ± 2 m/s in data set [2] (x2 = 0.7974); 1165 ± 2 m/s in data set [2] (x2 = 0.9053); 1163 ± 2 m/s in data set [2] (x2 = 0.9534).
For the compound `COC(=O)OC` [dimethyl carbonate] + CCC(C)=O, in data set [2] (x2 = 0), the mass density amounted to 1063.33 ± 0.56 kg/m3 and the speed of sound is 1198 ± 2 m/s.
For `COC(=O)OC` [dimethyl carbonate] + CCCC(C)=O, in data set [2] (x2 = 0), the mass density is given as 1063.33 ± 0.56 kg/m3 and the speed of sound is 1198 ± 2 m/s.
In the case of `CCCC(C)=O` [pentan-2-one], in data set [1], the mass density is reported as 801.39 ± 0.35 kg/m3, the speed of sound was 1212 ± 2 m/s and the Normal boiling temperature stood at 102.21 ± 0.13 °C.
Take `CCCC(C)=O` [pentan-2-one] + COC(=O)OC: the mass density in data set [2] (x1 = 0.0498) came out at 1046.71 ± 0.53 kg/m3; in data set [2] (x1 = 0.1004) it was 1030.33 ± 0.51 kg/m3; in data set [2] (x1 = 0.1996) it was 999.49 ± 0.47 kg/m3; in data set [2] (x1 = 0.3009), 969.77 ± 0.44 kg/m3; in data set [2] (x1 = 0.398), 942.67 ± 0.42 kg/m3; in data set [2] (x1 = 0.5036), 914.75 ± 0.41 kg/m3. Moreover, the mass density in data set [2] (x1 = 0.6017) stood at 890.1 ± 0.38 kg/m3; in data set [2] (x1 = 0.7046) it was 865.52 ± 0.36 kg/m3; in data set [2] (x1 = 0.8012), 843.59 ± 0.35 kg/m3; in data set [2] (x1 = 0.901), 821.94 ± 0.35 kg/m3; in data set [2] (x1 = 0.9504), 811.55 ± 0.35 kg/m3; in data set [2] (x1 = 1) it was 801.39 ± 0.35 kg/m3. The speed of sound in data set [2] (x1 = 0.0498) was 1199 ± 2 m/s; in data set [2] (x1 = 0.1004), 1198 ± 2 m/s; in data set [2] (x1 = 0.1996), 1197 ± 2 m/s; in data set [2] (x1 = 0.3009), 1198 ± 2 m/s; in data set [2] (x1 = 0.398), 1198 ± 2 m/s; in data set [2] (x1 = 0.5036), 1200 ± 2 m/s. The speed of sound in data set [2] (x1 = 0.6017) was 1201 ± 2 m/s; in data set [2] (x1 = 0.7046) it was 1203 ± 2 m/s; in data set [2] (x1 = 0.8012) it was 1206 ± 2 m/s; in data set [2] (x1 = 0.901), 1209 ± 2 m/s; in data set [2] (x1 = 0.9504), 1211 ± 2 m/s; in data set [2] (x1 = 1) it was 1212 ± 2 m/s.
